Bounds are passed on as bounds.

The target of the assay is T1, hSOS1 (hSOS1-mediated nucleotide exchange of hK-RasG12C) (Homo sapiens, UniProt Q07889).
T1 construct: hSOS1 (amino acid 564-1049); made in house; host or cells: E. coli BL21 (DE3)
T1 sequence (Q07889 with tags, fused parts or gaps): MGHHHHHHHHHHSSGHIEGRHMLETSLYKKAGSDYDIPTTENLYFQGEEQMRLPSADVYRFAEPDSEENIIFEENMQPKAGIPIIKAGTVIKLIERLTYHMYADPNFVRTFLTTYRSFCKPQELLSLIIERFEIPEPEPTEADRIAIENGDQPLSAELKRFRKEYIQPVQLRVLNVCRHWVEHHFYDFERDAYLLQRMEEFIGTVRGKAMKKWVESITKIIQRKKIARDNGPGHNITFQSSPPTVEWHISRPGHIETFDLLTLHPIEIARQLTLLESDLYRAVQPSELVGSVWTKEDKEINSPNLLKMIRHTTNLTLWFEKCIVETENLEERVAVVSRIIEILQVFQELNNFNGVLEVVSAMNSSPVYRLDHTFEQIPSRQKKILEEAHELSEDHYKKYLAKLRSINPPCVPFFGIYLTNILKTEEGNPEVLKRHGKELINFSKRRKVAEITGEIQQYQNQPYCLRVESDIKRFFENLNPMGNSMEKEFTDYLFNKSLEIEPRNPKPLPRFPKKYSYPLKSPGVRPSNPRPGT
Description: Biochemical Assay 2: hK-RasG12C activation assay by hSOS1 at high GTP concentration (HTRF nucleotide exchange). Particulars: high GTP (50 μM GTP). In general terms: Time-resolved FRET reads energy transfer from a long-lived donor to a nearby acceptor.
For the compound `Cc1nc(NC(C)c2ccc(-c3ccccc3CO)s2)c2cc(F)ncc2n1` (stereo not shown) [Example 68, [2-(5-{1-[(6-fluoro-2-methylpyrido[3,4-d]pyrimidin-4-yl)amino]ethyl}thiophen-2-yl)phenyl]methanol], the IC50 (in general, the midpoint of a concentration-inhibition curve) is more than 20000 nM.

For the compound `Cc1nc(N[C@H](C)c2cccc(Br)c2)c2cc(OCCCN(C)C)ncc2n1` [Example 70, N-[(1R)-1-(3-bromophenyl)ethyl]-6-[3-(dimethylamino)propoxy]-2-methylpyrido[3,4-d]pyrimidin-4-amine], the IC50 is 951 nM. Next, `Cc1nc(NC(C)c2ccc(-c3ccccc3CN(C)C)s2)c2cc(N3CCC3)ncc2n1` (stereo not shown) [Example 71, 6-(azetidin-1-yl)-N-[1-(5-{2-[(dimethylamino)methyl]phenyl}thiophen-2-yl)ethyl]-2-methylpyrido[3,4-d]pyrimidin-4-amine]: 55.5 nM; `Cc1nc(NC(C)c2ccc(-c3ccccc3CN(C)C)s2)c2cc(OCCCN(C)C)ncc2n1` (stereo not shown) [Example 72, N-[1-(5-{2-[(dimethylamino)methyl]phenyl}thiophen-2-yl)ethyl]-6-[3-(dimethylamino)propoxy]-2-methylpyrido[3,4-d]pyrimidin-4-amine]: 42.1 nM.

`Cc1nc(NC(C)c2ccc(-c3ccccc3CN(C)C)s2)c2cc(OCC3CC3)ncc2n1` (stereo not shown) [Example 73, 6-(cyclopropylmethoxy)-N-[1-(5-{2-[(dimethylamino)methyl]phenyl}thiophen-2-yl)ethyl]-2-methylpyrido[3,4-d]pyrimidin-4-amine] came in with an IC50 of 129 nM. Next, `Cc1nc(NC(C)c2ccc(-c3ccccc3CN(C)C)s2)c2cc(OCCO)ncc2n1` (stereo not shown) [Example 74, 2-[(4-{[1-(5-{2-[(dimethylamino)methyl]phenyl}thiophen-2-yl)ethyl]amino}-2-methylpyrido[3,4-d]pyrimidin-6-yl)oxy]ethanol]: 92.8 nM. In turn, `Cc1nc(N[C@H](C)c2cccc(Br)c2)c2cc(OCC3CC3)ncc2n1` [Example 75, N-[(1R)-1-(3-bromophenyl)ethyl]-6-(cyclopropylmethoxy)-2-methylpyrido[3,4-d]pyrimidin-4-amine] displayed an IC50 of 3190 nM. Next, `Cc1nc(NC(C)c2ccc(-c3ccccc3CN(C)C)s2)c2cc(OCCCO)ncc2n1` (stereo not shown) [Example 76, 3-[(4-{[1-(5-{2-[(dimethylamino)methyl]phenyl}thiophen-2-yl)ethyl]amino}-2-methylpyrido[3,4-d]pyrimidin-6-yl)oxy]propan-1-ol]: 49.9 nM. In turn, `Cc1nc(NC(C)c2ccc(-c3ccccc3CN(C)C)s2)c2cc(OC3CCS(=N)(=O)CC3)ncc2n1` (stereo not shown) [Example 77, N-[1-(5-{2-[(dimethylamino)methyl]phenyl}-2-thienyl)ethyl]-6-[(1-imino-1-oxidohexahydro-1lambda4-thiopyran-4-yl)oxy]-2-methylpyrido[3,4-d]pyrimidin-4-amine] showed a concentration for half-maximal inhibition (IC50) of 58.8 nM. Next, `Cc1nc(N[C@H](C)c2cccc(Br)c2)c2cc(OCCN(C)C)ncc2n1` [Example 78, N-[(1R)-1-(3-bromophenyl)ethyl]-6-[2-(dimethylamino)ethoxy]-2-methylpyrido[3,4-d]pyrimidin-4-amine]: 1040 nM; `Cc1nc(N[C@H](C)c2cccc(Br)c2)c2cc(NCCS(C)(=O)=O)ncc2n1` [Example 83]: 1340 nM.

As for `Cc1nc(N[C@H](C)c2cccc(Br)c2)c2cc(NCCn3ccnc3)ncc2n1` [Example 84, N4-[(1R)-1-(3-bromophenyl)ethyl]-N6-[2-(1H-imidazol-1-yl)ethyl]-2-methylpyrido[3,4-d]pyrimidine-4,6-diamine], the IC50 amounted to 1030 nM.

As to `Cc1nc(NC(C)c2ccc(-c3ccccc3CN(C)C)s2)c2cc(NCC3CCNC(=O)C3)ncc2n1` (stereo not shown) [Example 86, 4-{[(4-{[1-(5-{2-[(dimethylamino)methyl]phenyl}thiophen-2-yl)ethyl]amino}-2-methylpyrido[3,4-d]pyrimidin-6-yl)amino]methyl}piperidin-2-one], the IC50 turned out to be 127 nM.
